According to patent publication US9061060B2, “Deuterated benzylbenzene derivatives and methods of use” (Theracos Inc., priority 2008, dated 2015):
Values belong to the molecule of their own block, whether it stands above or below them.

Key:
[1] = Pharmacokinetic parameters in SD rats; type: in vivo, Sprague-Dawley rats; details: single oral 3 mg/kg in 30% PEG400, plasma; for CL/F / AUC(0-t) / Cmax / Tmax / half-life: Sprague-Dawley, rat; for AUC(0-t): read-out: AUC0-t (mean ± SD); for half-life: read-out: t1/2 (mean ± SD) (converted)
Protocol: The pharmacokinetic study of each test compound was conducted in 4 Sprague-Dawley rats following a single oral administration of 3 mg/kg of the compound. The dose was prepared by dissolving test article in appropriate volume of 30% PEG400. The plasma samples were collected from the orbital plexus at 0.083, 0.25, 0.50, 1.0, 2.0, 4.0, 6.0, 8.0, 12 and 24 hours post dose, and the plasma concentrations were determined by a developed LC-MS/MS method.

CYP1A2 = molecular target: T1, CYP1A2 (Homo sapiens, UniProt P05177); test: P450-Glo CYP screening kit, CYP1A2 inhibition; type: in vitro ADME; details: luminescence, read-out: IC50 1A2
T1 construct: purchased Promega
T1 sequence (P05177 1-516): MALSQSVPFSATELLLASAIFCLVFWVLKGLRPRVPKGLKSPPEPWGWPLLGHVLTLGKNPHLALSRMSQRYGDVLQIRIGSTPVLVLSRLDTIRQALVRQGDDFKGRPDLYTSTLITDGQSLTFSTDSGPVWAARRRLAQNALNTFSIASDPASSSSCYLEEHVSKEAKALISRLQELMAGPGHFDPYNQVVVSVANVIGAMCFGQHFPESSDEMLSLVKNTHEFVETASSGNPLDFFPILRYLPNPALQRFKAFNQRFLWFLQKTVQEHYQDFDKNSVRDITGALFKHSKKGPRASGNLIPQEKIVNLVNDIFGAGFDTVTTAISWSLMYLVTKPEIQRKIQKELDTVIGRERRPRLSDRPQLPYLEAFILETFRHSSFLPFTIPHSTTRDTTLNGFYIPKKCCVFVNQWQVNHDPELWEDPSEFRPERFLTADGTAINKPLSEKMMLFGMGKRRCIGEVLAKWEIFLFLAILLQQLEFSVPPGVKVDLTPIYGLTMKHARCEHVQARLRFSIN
Description: (§1) P450-Glo™ CYP Screening Kits for CYP1A2, CYP3A4 and CYP2C19 were purchased from Promega. […] Luminescence was quantified using a Victor 3 spectrophotometer (PerkinElmer).

CYP2C19 = molecular target: T2, CYP2C19 (Homo sapiens, UniProt P33261); test: P450-Glo CYP screening kit, CYP2C19 inhibition; type: in vitro ADME; details: luminescence, read-out: IC50 2C19
T2 construct: purchased Promega
T2 sequence (P33261 whole entry): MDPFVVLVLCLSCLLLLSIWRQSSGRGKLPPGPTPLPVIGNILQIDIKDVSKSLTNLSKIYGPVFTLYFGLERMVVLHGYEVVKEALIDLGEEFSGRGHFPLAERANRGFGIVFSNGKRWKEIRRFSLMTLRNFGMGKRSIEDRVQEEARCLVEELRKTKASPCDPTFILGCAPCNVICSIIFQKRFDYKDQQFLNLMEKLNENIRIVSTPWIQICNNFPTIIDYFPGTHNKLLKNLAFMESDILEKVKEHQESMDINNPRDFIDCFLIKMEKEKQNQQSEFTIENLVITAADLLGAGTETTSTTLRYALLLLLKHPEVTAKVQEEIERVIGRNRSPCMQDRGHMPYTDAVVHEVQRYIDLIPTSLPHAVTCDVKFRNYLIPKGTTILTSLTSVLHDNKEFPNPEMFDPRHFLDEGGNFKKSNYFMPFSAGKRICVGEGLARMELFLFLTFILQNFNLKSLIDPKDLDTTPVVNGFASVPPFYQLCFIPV
Description: as §1

SD rats = test: Urinary glucose excretion in SD rats; type: in vivo; details: 1 mg/kg oral; for Urinary Glucose Excretion in Rats, 0-4 h (mean ± SD) / Urinary Glucose Excretion in Rats, 0-24 h (mean ± SD) / Urinary Glucose Excretion in Rats, 4-24 h (mean ± SD): glucose 2 g/kg 1 h post dose
Protocol: Each test compound was dissolved in 30% PEG400 and administered orally to overnight-fasted SD rats by gavage at the dose level of 1 mg/kg. Control rats were given 30% PEG400 only. One hour post dosing, glucose solution (2 g/kg, 10 mL/kg) was administered by oral gavage. Urine was collected within metabolic cages from 0 to 4 hours, and 4 to 24 hours post-dosing for urine volume and glucose measurement. Food was removed 16 hours before dosing and then provided 4 hours after dosing. Water was supplied ad libitum. The concentration of urinary glucose was determined at 4 hours and 24 hours post-dose using a biochemistry analyzer. Results were recorded for the periods 0-4 hours, 4-24 hours and 0-24 hours, and expressed as a percentage of the urinary glucose excretion (UGE) seen with reference compound A, which was run as a positive control in all experiments.

CYP3A4 = molecular target: T3, CYP3A4 (Homo sapiens, UniProt P08684); test: P450-Glo CYP screening kit, CYP3A4 inhibition; type: in vitro ADME; details: luminescence, read-out: IC50 3A4
T3 construct: purchased Promega
T3 sequence (P08684 whole entry): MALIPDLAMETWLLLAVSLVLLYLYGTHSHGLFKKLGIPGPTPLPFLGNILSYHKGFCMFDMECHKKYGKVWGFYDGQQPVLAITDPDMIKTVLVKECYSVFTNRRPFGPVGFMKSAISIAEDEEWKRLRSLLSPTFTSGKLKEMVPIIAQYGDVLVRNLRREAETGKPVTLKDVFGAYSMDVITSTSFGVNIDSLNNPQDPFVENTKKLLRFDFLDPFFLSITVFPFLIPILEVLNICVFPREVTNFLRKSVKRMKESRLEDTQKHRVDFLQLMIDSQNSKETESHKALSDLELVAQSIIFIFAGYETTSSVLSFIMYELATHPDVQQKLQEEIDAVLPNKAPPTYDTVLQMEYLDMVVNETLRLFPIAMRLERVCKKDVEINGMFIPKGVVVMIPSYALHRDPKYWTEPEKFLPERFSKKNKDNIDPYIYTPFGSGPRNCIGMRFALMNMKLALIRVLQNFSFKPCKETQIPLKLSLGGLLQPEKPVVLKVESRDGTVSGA
Description: as §1

beagle dogs = test: Urinary glucose excretion in beagle dogs; type: in vivo
Protocol: Each test compound was dissolved in 10% PEG400 and administered orally to overnight-fasted beagle dogs by gavage at the dose level of 0.03 mg/kg. Control dogs were given 10% PEG400 only. One hour post dosing, glucose solution (2 g/kg, 5 mL/kg) was administered by oral gavage. Urine was collected within metabolic cages from 0 to 8 hours, and 8 to 24 hours post-dosing for urine volume and glucose measurement. Food was removed 16 hours before dosing and then provided 3 hours after dosing. Water was supplied ad libitum. The concentration of urinary glucose was determined at 8 hours and 24 hours post-dose using a biochemistry analyzer.

[2] = Pharmacokinetic parameters in Beagle dogs; type: in vivo; details: dog, single oral 1 mg/kg in 30% PEG400, plasma; for AUC(0-t): read-out: AUC0-t (mean ± SD); for CL/F: read-out: CL/F (mean ± SD) (converted); for Cmax: read-out: Cmax (mean ± SD); for Tmax: read-out: tmax (mean ± SD)
Protocol: The pharmacokinetic study of each test compound was conducted in three Beagle dogs following a single oral administration of 1 mg/kg of the compound. The dose was prepared by dissolving test article in appropriate volume of 30% PEG400. The plasma samples were collected from the cephalic vein pre-dose and at 0.25, 0.50, 1.0, 2.0, 4.0, 6.0, 8.0, 12 and 24 hours post dose, and the plasma concentrations were determined by a developed LC-MS/MS method.

[3] = separate experiment (Table 4A), 0-24 h
[4] = 0.03 mg/kg oral, glucose 2 g/kg 1 h post dose, 0-8 h (Table 4)
[5] = 0.03 mg/kg oral, glucose 2 g/kg 1 h post dose, 0-24 h (Table 4)
[6] = 0.03 mg/kg oral, glucose 2 g/kg 1 h post dose, 8-24 h (Table 4)

CL/F [1]: 2.4 mL/min/kg | AUC(0-t) [1]: 20300 ± 1610 ng·h/mL | Cmax (mean ± SD) [1]: 2923 ± 393 ng/mL | t1/2 (mean ± SD) [1]: 4.56 ± 0.64 h | tmax (mean ± SD) [1]: 0.88 ± 0.75 h
Compound: [2H]C([2H])(C)Oc1ccc(Cc2cc([C@@H]3O[C@H](CO)[C@@H](O)[C@H](O)[C@H]3O)ccc2Cl)cc1 [24a, (2S,3R,4R,5S,6R)-2-(4-chloro-3-(4-(ethoxy-1,1′-d)benzyl)phenyl)-6-(hydroxymethyl)tetrahydro-2H-pyran-3,4,5-triol]

IC50 (CYP1A2): > 1000 µM | CL/F [1]: 7.18 mL/min/kg | AUC(0-t) [1]: 6680 ± 350 ng·h/mL | Cmax (mean ± SD) [1]: 1494 ± 428 ng/mL | t1/2 (mean ± SD) [1]: 6.34 ± 2.79 h | tmax (mean ± SD) [1]: 1.19 ± 0.94 h | IC50 (CYP2C19): 120 µM | IC50 (CYP3A4): ~1000 µM
Compound: [2H]C([2H])([2H])Oc1ccc(Cc2cc([C@@H]3O[C@H](CO)[C@@H](O)[C@H](O)[C@H]3O)ccc2Cl)cc1 [24d, (2S,3R,4R,5S,6R)-2-(4-chloro-3-(4-(methoxy-d3)benzyl)phenyl)-6-(hydroxymethyl)tetrahydro-2H-pyran-3,4,5-triol]
Urinary Glucose Excretion in Rats, 0-4 h, % relative to Ref A (SD rats): 131% | Urinary Glucose Excretion in Rats, 0-24 h, % relative to Ref A (SD rats): 92% | Urinary Glucose Excretion in Rats, 4-24 h, % relative to Ref A (SD rats): 89% | Urinary Glucose Excretion in Rats, 0-4 h (mean ± SD) (SD rats): 251 ± 44 mg | Urinary Glucose Excretion in Rats, 0-24 h (mean ± SD) (SD rats): 2234 ± 199 mg | Urinary Glucose Excretion in Rats, 4-24 h (mean ± SD) (SD rats): 1983 ± 167 mg

The next lines start with the molecule.

Compound: [2H]C([2H])([2H])Oc1ccc(Cc2cc([C@]3([2H])O[C@H](CO)[C@@H](O)[C@H](O)[C@H]3O)ccc2Cl)cc1 [24e, (2S,3R,4R,5S,6R)-2-(4-chloro-3-(4-(methoxy-d3)benzyl)phenyl)-6-(hydroxymethyl)tetrahydro-2H-pyran-2-d-3,4,5-triol]
Urinary Glucose Excretion in Rats, 0-4 h, % relative to Ref A (SD rats): 162% | Urinary Glucose Excretion in Rats, 0-24 h, % relative to Ref A (SD rats): 101% | Urinary Glucose Excretion in Rats, 4-24 h, % relative to Ref A (SD rats): 97% | Urinary Glucose Excretion in Rats, 0-4 h (mean ± SD) (SD rats): 236 ± 48 mg | Urinary Glucose Excretion in Rats, 0-24 h (mean ± SD) (SD rats): 2525 ± 266 mg | Urinary Glucose Excretion in Rats, 4-24 h (mean ± SD) (SD rats): 2288 ± 287 mg

Compound: OC[C@H]1O[C@@H](c2ccc(Cl)c(Cc3ccc(C4CC4)cc3)c2)[C@H](O)[C@@H](O)[C@@H]1O [Ref C, (2S,3R,4R,5S,6R)-2-(4-chloro-3-(4-cyclopropylbenzyl)phenyl)-6-(hydroxymethyl)tetrahydro-2H-pyran-3,4,5-triol, reference compound]
CL/F [1]: 5.2 mL/min/kg | Cmax [1]: 1050 ± 230 ng/mL | Tmax [1]: 3 ± 1.15 h | AUC(0-t) [1]: 9770 ± 2180 ng·h/mL | half-life [1]: 4.28 ± 0.8 h

Compound: OC[C@H]1O[C@@H](c2ccc(Cl)c(Cc3ccc(OCCOCC(F)F)cc3)c2)[C@H](O)[C@@H](O)[C@@H]1O [Ref F, (2S,3R,4R,5S,6R)-2-(4-chloro-3-(4-(2-(2,2-difluoroethoxy)ethoxy)benzyl)phenyl)-6-(hydroxymethyl)tetrahydro-2H-pyran-3,4,5-triol, reference compound]
Urinary Glucose Excretion in Dogs, 0-8 h (mean ± SD) (beagle dogs; separate experiment (Table 4A), 0-8 h): 1927 ± 307 mg | Urinary Glucose Excretion in Dogs, 0-24 h (mean ± SD) (beagle dogs; [3]): 13438 ± 5237 mg | Urinary Glucose Excretion in Dogs, 8-24 h (mean ± SD) (beagle dogs; separate experiment (Table 4A), 8-24 h): 11511 ± 5327 mg | AUC(0-t) [2]: 4920 ± 484 ng·h/mL | CL/F [2]: 3.17 mL/min/kg | Cmax [2]: 889 ± 65.4 ng/mL | Tmax [2]: 0.4 ± 0.1 h

Compound: OC[C@H]1O[C@@H](c2ccc(Cl)c(Cc3ccc(OCCOC4CC4)cc3)c2)[C@H](O)[C@@H](O)[C@@H]1O [Ref G, (2S,3R,4R,5S,6R)-2-(4-chloro-3-(4-(2-cyclopropoxyethoxy)benzyl)phenyl)-6-(hydroxymethyl)tetrahydro-2H-pyran-3,4,5-triol, reference compound]
CL/F [1]: 11.8 mL/min/kg | Cmax [1]: 594 ± 85.8 ng/mL | Tmax [1]: 1.88 ± 1.55 h | AUC(0-t) [1]: 4240 ± 405 ng·h/mL | half-life [1]: 3.39 ± 0.68 h

Compound: [2H][C@@]1(c2ccc(Cl)c(Cc3ccc(OCC)cc3)c2)O[C@H](CO)[C@@H](O)[C@H](O)[C@H]1O [compound 5, (2S,3R,4R,5S,6R)-2-(4-chloro-3-(4-ethoxybenzyl)phenyl)-6-(hydroxymethyl)tetrahydro-2H-pyran-2-d-3,4,5-triol]
Urinary Glucose Excretion in Dogs, 0-8 h (mean ± SD) (beagle dogs; [4]): 3765 ± 808 mg | Urinary Glucose Excretion in Dogs, 0-24 h (mean ± SD) (beagle dogs; [5]): 12676 ± 2150 mg | Urinary Glucose Excretion in Dogs, 8-24 h (mean ± SD) (beagle dogs; [6]): 8910 ± 1700 mg | IC50 (CYP1A2): 500 to 1000 µM | IC50 (CYP2C19): 104 µM | Urinary Glucose Excretion in Rats, 0-24 h (mean ± SD) (SD rats): 2650 ± 385 mg | Urinary Glucose Excretion in Rats, 4-24 h (mean ± SD) (SD rats): 2457 ± 369 mg | IC50 (CYP3A4): 500 to 1000 µM

Compound: [2H]C([2H])(c1ccc(OC([2H])([2H])C([2H])([2H])[2H])cc1)c1cc([C@@H]2O[C@H](CO)[C@@H](O)[C@H](O)[C@H]2O)ccc1Cl [compound 16, (2S,3R,4R,5S,6R)-2-(4-chloro-3-((4-(ethoxy-d5)phenyl)methyl-d2)phenyl)-6-(hydroxymethyl)tetrahydro-2H-pyran-3,4,5-triol]
Urinary Glucose Excretion in Dogs, 0-8 h (mean ± SD) (beagle dogs; [4]): 4362 ± 818 mg | Urinary Glucose Excretion in Dogs, 0-24 h (mean ± SD) (beagle dogs; [5]): 15357 ± 2514 mg | Urinary Glucose Excretion in Dogs, 8-24 h (mean ± SD) (beagle dogs; [6]): 10995 ± 1987 mg | CL/F [1]: 2.3 mL/min/kg | AUC(0-t) [1]: 21000 ± 4370 ng·h/mL | Cmax (mean ± SD) [1]: 2683 ± 471 ng/mL | t1/2 (mean ± SD) [1]: 5.70 ± 0.63 h | tmax (mean ± SD) [1]: 1.00 ± 0.71 h

Compound: [2H]C([2H])(c1ccc(C2CC2)cc1)c1cc([C@@H]2O[C@H](CO)[C@@H](O)[C@H](O)[C@H]2O)ccc1Cl [compound 54, (2S,3R,4R,5S,6R)-2-(4-chloro-3-((4-cyclopropylphenyl)methyl-d2)phenyl)-6-(hydroxymethyl)tetrahydro-2H-pyran-3,4,5-triol]
CL/F [1]: 4.4 mL/min/kg | Cmax [1]: 1270 ± 138 ng/mL | Tmax [1]: 2 h | AUC(0-t) [1]: 10600 ± 1600 ng·h/mL | half-life [1]: 6.08 ± 1.92 h

Compound: [2H]C([2H])(c1ccc(OCCOCC(F)F)cc1)c1cc([C@@H]2O[C@H](CO)[C@@H](O)[C@H](O)[C@H]2O)ccc1Cl [compound 87, (2S,3R,4R,5S,6R)-2-(4-chloro-3-((4-(2-(2,2-difluoroethoxy)ethoxy)phenyl)methyl-d2)phenyl)-6-(hydroxymethyl)-tetrahydro-2H-pyran-3,4,5-triol]
Urinary Glucose Excretion in Dogs, 0-24 h (mean ± SD) (beagle dogs; [3]): 16858 ± 674 mg | AUC(0-t) [2]: 8880 ± 1440 ng·h/mL | CL/F [2]: 1.85 mL/min/kg | Cmax [2]: 1580 ± 282 ng/mL | Tmax [2]: 0.6 ± 0.4 h

Compound: [2H]C([2H])(COc1ccc(Cc2cc([C@@H]3O[C@H](CO)[C@@H](O)[C@H](O)[C@H]3O)ccc2Cl)cc1)OC1CC1 [compound 95, (2S,3R,4R,5S,6R)-2-(4-chloro-3-(4-(2-cyclopropoxy(ethoxy-2,2-d2))benzyl)phenyl)-6-(hydroxymethyl)tetrahydro-2H-pyran-3,4,5-triol]
CL/F [1]: 9.2 mL/min/kg | Cmax [1]: 710 ± 76.4 ng/mL | Tmax [1]: 2.13 ± 1.44 h | AUC(0-t) [1]: 5240 ± 328 ng·h/mL | half-life [1]: 4.83 ± 1.42 h
